According to patent US5053070A, “Pyrimidine derivatives, preparation processes thereof, herbicide containing the same, and herbicidal compositions containing the same along with other active ingredient” (Mitsui Toatsu Chemicals, Incorporated, priority 1988, dated 1991):
Values after ≈ are worked out from the molar mass of the structure shown.

How the values were obtained:
[1] = test system: ALS (acetolactate syntase); assay: ALS enzyme assay (Test 1); format: biochemical, barnyardgrass; details: 1,000 ppm (0.5 mg/0.5 ml)
How it was run: (§1)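 Partially purified ALS from dark-grown pea and barnyardgrass seedlings incubated 1 h at 30° C with pyruvate, TPP, MgCl2 and FAD. Compounds tested at 1,000 ppm (0.5 mg/0.5 ml). Acetoin formed detected colorimetrically at 525 nm via creatine/α-naphthol, relative to blank and acid-stopped controls.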

[2] = test system: ALS (acetolactate syntase); assay: ALS enzyme assay (Test 1); format: biochemical, pea; details: 1,000 ppm (0.5 mg/0.5 ml)
How it was run: as §1

[3] = test system: cotton; assay: Upland soil application test (Test 2), crop injury; format: in vivo; details: 30 g ai/a, soil spray before emergence, 30 days later
How it was run: (§2)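 Damage was graded 30 days after treatment by comparing air-dried plant weight with that of plants in untreated pots. Test compound, given as a diluted wettable powder, had been sprayed on the soil surface one day after sowing, before any weeds emerged.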

[4] = test system: peanut; assay: Upland soil application test (Test 2), crop injury; format: in vivo; details: 30 g ai/a, soil spray before emergence, 30 days later
How it was run: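 Pre-emergence soil spray, greenhouse. Weed seeds mixed through upland soil; crops sown alongside. Day 1 post-sowing: wettable-powder formulation, water-diluted, applied at 10 l/are by pressure ULV sprayer. Read at 30 days as air-dried weight vs untreated pots, scored on a graded damage scale.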

[5] = test system: soybean; assay: Upland soil application test (Test 2), crop injury; format: in vivo; details: 30 g ai/a, soil spray before emergence, 30 days later
How it was run: as §2

[6] = test system: barnyardgrass; assay: Upland foliar application test (Test 3); format: in vivo; details: 30 g ai/a, foliar spray at 2-3 leaves, 30th day
How it was run: (§3)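 Foliar post-emergence spray: diluted emulsifiable formulation applied at 5 l/are by pressure ULV sprayer once plants in upland-soil greenhouse pots reached 2-3 leaves. Degree of weed damage and crop injury rated on day 30 post-application.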

[7] = test system: common lambsquarters; assay: Upland foliar application test (Test 3); format: in vivo; details: 30 g ai/a, foliar spray at 2-3 leaves, 30th day
How it was run: as §3

[8] = test system: foxtail meadow; assay: Upland foliar application test (Test 3); format: in vivo; details: 30 g ai/a, foliar spray at 2-3 leaves, 30th day
How it was run: as §3

[9] = test system: green foxtail; assay: Upland foliar application test (Test 3); format: in vivo; details: 30 g ai/a, foliar spray at 2-3 leaves, 30th day
How it was run: as §3

[10] = test system: johnsongrass; assay: Upland foliar application test (Test 3); format: in vivo; details: 30 g ai/a, foliar spray at 2-3 leaves, 30th day
How it was run: as §3

[11] = test system: large crabgrass; assay: Upland foliar application test (Test 3); format: in vivo; details: 30 g ai/a, foliar spray at 2-3 leaves, 30th day
How it was run: as §3

[12] = test system: redroot pigweed; assay: Upland foliar application test (Test 3); format: in vivo; details: 30 g ai/a, foliar spray at 2-3 leaves, 30th day
How it was run: as §3

[13] = test system: Sagittaria pygmaea; assay: Treatment of soil under submerged condition, pre-emergence (Test 4); format: in vivo; details: 30 g ai/a granule, 30 days later
How it was run: (§4)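 Wagner pots of soil were seeded or planted with weed seeds or tubers under flooding, then 2–3-leaf rice seedling pairs were transplanted and grown in a greenhouse. One day later, before weed emergence, pots received a granule of the test composition at a predetermined amount. Weed emergence and rice injury were scored 30 days later.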

[14] = test system: barnyardgrass; assay: as above; format: in vivo; details: 30 g ai/a granule, 30 days later
How it was run: as §4

[15] = test system: bulrush; assay: as above; format: in vivo; details: 30 g ai/a granule, 30 days later
How it was run: as §4

[16] = test system: narrowleaf waterplantain; assay: Petri dish test (Test 6); format: in vivo; details: 336 h; seeds on filter paper, 25° C., 14 days; read-out: I80 (ppm)
How it was run: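 Narrowleaf waterplantain seeds placed on filter paper pre-treated with compound in acetone (solvent air-dried) in 9 cm Petri dishes with 10 ml water, grown at 25° C in light. Growth was scored after fourteen days as degree of damage against an untreated group.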

| SMILES | Inhibitory activity (%) Barnyardgrass [1] | Inhibitory activity (%) Pea [2] | Injury Cotton [3] | Injury Peanut [4] | Injury Soybean [5] | Herbicidal effects Barnyardgrass [6] | Herbicidal effects Common lambsquarters [7] | Herbicidal effects Foxtail meadow [8] | Herbicidal effects Green foxtail [9] | Herbicidal effects Johnsongrass [10] | Herbicidal effects Large crabgrass [11] | Herbicidal effects Redroot pigweed [12] | Herbicidal effects Sagittaria Pygmaea [13] | Herbicidal effects Barnyardgrass [14] | Herbicidal effects Bulrush [15] | IC80 [16] |
| --- | --- | --- | --- | --- | --- | --- | --- | --- | --- | --- | --- | --- | --- | --- | --- | --- |
| CC=CCON=Cc1ccccc1Oc1nc(OC)cc(OC)n1 [compound 8] | 41% | 0% | 0 (91-100 (No damages)) | 0 (91-100 (No damages)) | 0 (91-100 (No damages)) | 4 (6-10 (Severe damages)) | 4 (6-10 (Severe damages)) | 5 (0-5 (Death)) | 5 (0-5 (Death)) | 5 (0-5 (Death)) | 3 (11-40 (Medium damages)) | 5 (0-5 (Death)) | 4 (6-10 (Severe damages)) | 4 (6-10 (Severe damages)) | 4 (6-10 (Severe damages)) | 40 µg/mL (≈ 121 µM) |
| CCCC=CCON=Cc1ccccc1Oc1nc(OC)cc(OC)n1 [compound 25] | 39% | 0% | 0 (91-100 (No damages)) | 0 (91-100 (No damages)) | 0 (91-100 (No damages)) | 4 (6-10 (Severe damages)) | 4 (6-10 (Severe damages)) | 5 (0-5 (Death)) | 5 (0-5 (Death)) | 5 (0-5 (Death)) | 5 (0-5 (Death)) | 4 (6-10 (Severe damages)) | 4 (6-10 (Severe damages)) | 5 (0-5 (Death)) | 3 (11-40 (Medium damages)) | 17 µg/mL (≈ 47.6 µM) |
| COc1cc(OC)nc(Oc2ccccc2C=NOCC=CCl)n1 [compound 11] | 43% | 0% | 0 (91-100 (No damages)) | 0 (91-100 (No damages)) | 0 (91-100 (No damages)) | 5 (0-5 (Death)) | 4 (6-10 (Severe damages)) | 5 (0-5 (Death)) | 5 (0-5 (Death)) | 5 (0-5 (Death)) | 5 (0-5 (Death)) | 5 (0-5 (Death)) | 4 (6-10 (Severe damages)) | 4 (6-10 (Severe damages)) | 3 (11-40 (Medium damages)) | 40 µg/mL (≈ 114 µM) |
| COc1cc(OC)nc(Oc2ccccc2C=NOC(C)c2ccccc2)n1 (stereo not shown) [compound 21] | 26% | 0% | 0 (91-100 (No damages)) | 0 (91-100 (No damages)) | 0 (91-100 (No damages)) | 3 (11-40 (Medium damages)) | 3 (11-40 (Medium damages)) | 3 (11-40 (Medium damages)) | 4 (6-10 (Severe damages)) | 5 (0-5 (Death)) | 4 (6-10 (Severe damages)) | 3 (11-40 (Medium damages)) | 3 (11-40 (Medium damages)) | 3 (11-40 (Medium damages)) | 3 (11-40 (Medium damages)) | 100 µg/mL (≈ 264 µM) |
| COc1cc(OC)nc(Oc2ccccc2C=NOC2CCCCC2)n1 [Compound No. 3] | 22% | 0% | 0 (91-100 (No damages)) | 0 (91-100 (No damages)) | 0 (91-100 (No damages)) | 5 (0-5 (Death)) | 4 (6-10 (Severe damages)) | 5 (0-5 (Death)) | 5 (0-5 (Death)) | 5 (0-5 (Death)) | 4 (6-10 (Severe damages)) | 4 (6-10 (Severe damages)) | 5 (0-5 (Death)) | 4 (6-10 (Severe damages)) | 4 (6-10 (Severe damages)) | 100 µg/mL (≈ 280 µM) |
| COc1cc(OC)nc(Oc2ccccc2C=NOCc2ccccc2Cl)n1 [compound 16] | 15% | 0% | 0 (91-100 (No damages)) | 0 (91-100 (No damages)) | 0 (91-100 (No damages)) | 3 (11-40 (Medium damages)) | 3 (11-40 (Medium damages)) | 3 (11-40 (Medium damages)) | 5 (0-5 (Death)) | 5 (0-5 (Death)) | 3 (11-40 (Medium damages)) | 4 (6-10 (Severe damages)) | 4 (6-10 (Severe damages)) | 4 (6-10 (Severe damages)) | 3 (11-40 (Medium damages)) | 100 µg/mL (≈ 250 µM) |
| CON=Cc1ccccc1Oc1nc(OC)cc(OC)n1 [Compound No. 1, O-methyl--2-(4,6-dimethoxy-2-pyrimidinyloxy)benzaldoxime] | 58% | 3% | 0 (91-100 (No damages)) | 0 (91-100 (No damages)) | 0 (91-100 (No damages)) | 5 (0-5 (Death)) | 4 (6-10 (Severe damages)) | 5 (0-5 (Death)) | 5 (0-5 (Death)) | 5 (0-5 (Death)) | 3 (11-40 (Medium damages)) | 5 (0-5 (Death)) | 3 (11-40 (Medium damages)) | 2 (41-70 (Small damages)) | 2 (41-70 (Small damages)) | 25 µg/mL (≈ 86.4 µM) |
